Measurements reported in PubChem BioAssay (NCI).
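96-well plates; 48 h exposure; 5 concentrations. Endpoints by linear interpolation between flanking doses. Not reached: highest tested concentration assigned. The concentration for 50% growth inhibition is given as GI50. Definition used: TGI = concentration required for complete inhibition of growth.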 Where a SMILES comes first, the peptide text is derived from it. Bridges are numbered along the chain shown (N, C = ends). [ ]: non-standard residue; d: D form. The star is where a group is joined. ξ: configuration not given here. ξDab(CH2SO3H) = NC(CCNCS(=O)(=O)O)C(=O)O; Heptanoyl(6-Me) = CC(C)CCCCC(=O)*; Dab = NCC[CH](N)C(=O)O

test system: MDA-MB-468 breast; experiment: NCI-60 cell line screen, 48 h

| Compound | GI50 | TGI |
| --- | --- | --- |
| CN(C)CCCOc1c2ccc(Cl)cc2nc2c1oc1ccccc12 | 1950 nM | 5070 nM |
| C[C@]12CC[C@@H]3c4cc(O)c(O)cc4CC[C@H]3[C@@H]1CC[C@@H]2O | 3820 nM | 21100 nM |
| CCOC(=O)c1cc(C(=O)c2cc(OC)c(OC)c(OC)c2)n2c1ccc1ccccc12 | 158 nM | – |
| CC(C)(C)[Si](C)(C)OC1[C@@H](O[Si](C)(C)C(C)(C)C)[C@@H](CNC(=O)NC(=O)CF)O[C@H]1n1cnc2c(NC(=O)Nc3ccccc3)ncnc21 (stereo not given in full) | 3210 nM | 20100 nM |
| C=C1[C@@H](C)C2[C@H](Cc3ccccc3)NC(=O)[C@]23[C@H](OC(C)=O)/C=C/[C@@](C)(O)C(=O)[C@@H](C)C/C=C/[C@H]3[C@@H]1O (stereo not given in full) | 38.9 nM | 12700 nM |
| COc1cc2ncnc(Nc3cccc(Cl)c3F)c2cc1OC(=O)N1CCN(C)C[C@H]1C | 60.7 nM | 1270 nM |
| CN(C)CCCCC(C(=O)CBr)(c1ccccc1)c1ccccc1 | 1090 nM | 2890 nM |
| C[C@@H](NC(=O)/C(C#N)=C/c1ccc([N+](=O)[O-])cc1)c1ccccc1 | 1740 nM | 3370 nM |
| CCC(C)C1NC(=O)C(CCNCS(=O)(=O)O)NC(=O)C(NC(=O)C(CCNCS(=O)(=O)O)NC(=O)C(NC(=O)C(CCNCS(=O)(=O)O)NC(=O)CCCCC(C)C)C(C)O)CCNC(=O)C(C(C)O)NC(=O)C(CCNCS(=O)(=O)O)NC(=O)C(CCNCS(=O)(=O)O)NC(=O)C(C(C)CC)NC1=O (stereo not given) ({Heptanoyl(6-Me)}-[ξDab(CH2SO3H)]T[ξDab(CH2SO3H)][Dab][ξDab(CH2SO3H)]II[ξDab(CH2SO3H)][ξDab(CH2SO3H)]T; lactam 4-C; configuration not given here) | 807 nM | 4890 nM |
| Cc1nc(-c2nc(-c3ccc(OC(F)(F)F)cc3)no2)nn1Cc1cccc(N2CCC(S(C)(=O)=O)CC2)c1 | < 10 nM | 3900 nM |
| Cc1ccc2c(c1)c(Sc1ccc(C(=O)NO)cc1)c1n2CN(C)CC1 | 1100 nM | 2970 nM |
| O=C(Nc1ccc(-n2cc(-c3ccncc3)c(-c3ccc(O)c(Cl)c3)n2)cc1)Nc1ccc(Cl)c(C(F)(F)F)c1 | 2960 nM | 13100 nM |
| COc1cc(/C(=C2/O[C@@H]([C@H]3COC(C)(C)O3)[C@H]3OC(C)(C)O[C@@H]23)c2ccc3ccccc3c2)cc(OC)c1OC | 4020 nM | 21100 nM |
| COc1cc2c(cc1Cc1cccc(Cl)c1F)c(=O)c(C(=O)O)cn2[C@@H](CO)C(C)C | 3260 nM | 9320 nM |
| [Cl][Hg][c]1ccc(Cl)s1 | 1190 nM | 2770 nM |
| COc1ccc2c(O)c(/C=C3\N=Nc4ccccc43)oc2c1C[C@@H]1CCNC[C@H]1F | 10400 nM | 23600 nM |
| COc1cccc(/C=N/NC(=O)c2ccccc2N2CCCC2)c1O | 3330 nM | > 100000 nM |
| Clc1ccc(Nc2ccnc(N3CCN(c4ccnc5cc(Cl)ccc45)CC3)n2)cc1 | 2080 nM | 5560 nM |
| O=C(/C(=C/c1ccc([N+](=O)[O-])cc1)SCc1ccc(Cl)cc1)c1ccc(F)cc1 | 2870 nM | 9220 nM |
| CCOC(=O)Nc1nc2ccc(Br)cc2s1 | > 50000 nM | > 50000 nM |
| C=C1C(=O)O[C@H]2[C@H]1CC/C(C=Nc1c(N)cc(C(F)(F)F)cc1C(F)(F)F)=C\CC[C@@]1(C)O[C@@H]21 | 1500 nM | 3210 nM |
| CC[C@]12CC(C(=O)OC)=C3Nc4ccccc4[C@@]34CCN(C14)[C@@H]1c3cc4c(cc3O[C@@H]1[C@H]2O)NC1=C(C(=O)OC)C[C@@]2(CC)C3N(CC[C@@]143)C[C@H]1O[C@H]12 (stereo not given in full) | 129 nM | 1050 nM |
| Cc1ccc2c(n1)C(=O)C(Cl)=C(Nc1ccccc1C(=O)OC(C)(C)C)C2=O | 1470 nM | 3250 nM |
| COc1cc(C(=O)N2CCN(c3ccccc3)CC2)c2ccccc2n1 | 31.8 nM | 211 nM |

| Compound | GI50 | TGI |
| --- | --- | --- |
| CC/C(=C(/c1ccc(O)cc1)c1ccc(OCCN)cc1)c1ccccc1 | 1570 nM | 3940 nM |
| N#Cc1c(N)n2c(nc1=Nc1ccc(Cl)cc1)sc1cc(Cl)ccc12 | 3620 nM | > 100000 nM |
| CC[C@@H](C(=O)[C@H](C)[C@H](O)[C@@H](C)[C@H]1O[C@H]([C@@H](CC)C(=O)N(CC)CC)CC[C@H]1C)C1O[C@]2(C=C[C@@H](O)[C@]3(CC[C@@](C)([C@H]4CC[C@](O)(CC)[C@H](C)O4)O3)O2)[C@H](C)C[C@@H]1C (stereo not given in full) | 1810 nM | 5800 nM |
| CCN1C(=O)N(CC)C2C1NN=c1s/c(=C\c3ccco3)c(=O)n12 (stereo not given) | 356 nM | > 100000 nM |
| N#Cc1c(N2CCOCC2)nc(=S)[nH]c1-c1ccccc1 | 25800 nM | > 100000 nM |
| CN1CCC2(CC1)NC(=O)c1c(c3ccc(Cl)c(Cl)c3n1C)C2C#N (stereo not given) | 2180 nM | 6870 nM |
| N/C(=N/N=C/c1ccccc1)N/N=C\c1ccccc1 | 2520 nM | 11300 nM |
| COc1cc2c(c(OC)c1OC)-c1ccc(OC)c(=O)cc1[C@@H](NC(C)=O)CC2 | < 10 nM | > 100000 nM |
| COc1ccc(Nc2cc(C)nc(NCc3ccccc3)n2)cc1 | 776 nM | 2510 nM |
| CCCCCCCCCCCCSC1=C(Cl)C(=O)C(OC)=C(OC)C1=O | 438 nM | 16900 nM |
| CCCCCCn1c(-c2ccc(C(=O)O/N=C(\N)c3ccc4ccccc4c3)cc2)nc(-c2ccccc2)c1-c1ccccc1 | 22200 nM | 97700 nM |
| CCCCCCCCC/C(=N\NC(=O)c1ccncc1)c1ccc(O)c(O)c1O | 161 nM | 1110 nM |
| Cn1nc(C(F)(F)F)cc1-c1c[nH]c(OCc2ccc(Cl)cc2)c(-c2ccc(Cl)c(C(F)(F)F)c2)c1=O | 940 nM | 4730 nM |
| Cn1cc(C2=C(c3c4n(c5ccccc35)CCC(CN)C4)C(=O)NC2=O)c2ccccc21 (stereo not given) | 2910 nM | 6890 nM |
| O=[N+]([O-])c1ccc(C2CC(c3ccccc3)=Nc3ccccc3S2)cc1 (stereo not given) | > 100000 nM | > 100000 nM |
| COCCNc1ccc2c3c(cccc13)C(=O)N(CCN(C)C)C2=O | 7100 nM | > 25000 nM |
| N=C(N)SCc1c2ccccc2c(CSC(=N)N)c2ccccc12 | 2320 nM | 9810 nM |
| Cc1cc(Nc2ncc3c(n2)N(C)C(=O)N(c2cc(NC(=O)c4cccc(C(F)(F)F)c4)ccc2C)C3)n(C)n1 | 57.9 nM | 396 nM |
| O=C([O][Hg][CH2]C1OCCOC1[CH2][Hg][O]C(=O)c1ccccc1)c1ccccc1 (stereo not given) | 1710 nM | 3080 nM |
| CN1CCN(Cc2ccc(NC(=O)c3cncc(C#Cc4cnc5ccc(OCC(C)(C)O)nn45)c3)cc2C(F)(F)F)CC1 | 183 nM | 409 nM |
| S=C(NCCNC(=S)[S][Sn]([c]1ccccc1)([c]1ccccc1)[c]1ccccc1)[S][Sn]([c]1ccccc1)([c]1ccccc1)[c]1ccccc1 | 12.9 nM | 41.9 nM |
| CC(=O)Nc1c(I)c(NC(C)=O)c(I)c(C(=O)O)c1I | > 100000 nM | > 100000 nM |
| Cc1cc(O)cc(C)c1/C=C/c1cncc(C(N)=O)c1 | 749 nM | 4620 nM |
| N#C[Se]CCN1C(=O)C2C(C1=O)[C@H]1C=C[C@@H]2S1 (stereo not given in full) | 2600 nM | 7710 nM |
